# ChEMBL document CHEMBL4130368, “Thienopyrimidine derivatives exert their anticancer efficacy via apoptosis induction, oxidative stress and mitotic catastrophe” (Eur J Med Chem, 2017)
# Experiments:
# HepG2 = test: Antiproliferative activity against human HepG2 cells after 72 hrs by MTT assay; assay type: functional, cell-based; conditions: HepG2, 72 h
# HCT-116 = test: Antiproliferative activity against human HCT116 cells after 72 hrs by MTT assay; assay type: functional, cell-based; conditions: HCT-116, 72 h
# HCT-15 = test: Antiproliferative activity against human HCT15 cells after 72 hrs by MTT assay; assay type: functional, cell-based; conditions: HCT-15, 72 h
# LN-229 = test: Antiproliferative activity against human LN229 cells after 72 hrs by MTT assay; assay type: functional, cell-based; conditions: LN-229, 72 h
# [1] = Antiproliferative activity against human GBM10 cells after 72 hrs by MTT assay; assay type: functional, cell-based; conditions: GBM10, 72 h
# A2780 = test: Antiproliferative activity against human A2780 cells after 72 hrs by MTT assay; assay type: functional, cell-based; conditions: A2780, 72 h
# CHO = test: Cytotoxicity against CHO cells assessed as reduction in cell survival after 72 hrs by MTT assay; assay type: ADME, cell-based; conditions: Cricetulus griseus
# KB = test: Antiproliferative activity against human KB cells by MTT assay; assay type: functional, cell-based
# PC-3 = test: Antiproliferative activity against human PC3 cells after 72 hrs by MTT assay; assay type: functional, cell-based; conditions: PC-3, 72 h
# NCI-H460 = test: Antiproliferative activity against human NCI-H460 cells after 24 hrs by MTT assay; assay type: functional, cell-based; conditions: NCI-H460, 24 h
# A549 = test: Antiproliferative activity against human A549 cells after 24 hrs by MTT assay; assay type: functional, cell-based; conditions: A549, 24 h
# U-251 = test: Antiproliferative activity against human U251 cells after 24 hrs by MTT assay; assay type: functional, cell-based; conditions: U-251, 24 h
SMILES,IC50 (HepG2) [µM],IC50 (HCT-116) [µM],IC50 (HCT-15) [µM],IC50 (LN-229) [µM],IC50 [1] [µM],IC50 (A2780) [µM],IC50 (CHO) [µM],IC50 (KB) [µM],IC50 (PC-3) [µM],IC50 (NCI-H460) [µM],IC50 (A549) [µM],IC50 (U-251) [µM]
O=c1c2c3c(sc2ncn1Cc1ccc(Br)cc1)CCCC3,14.9,–,–,–,–,–,–,–,–,–,–,–
COc1ccc(-c2nc(O)c3c4c(sc3n2)CCCC4)cc1OC,–,19.6,11,14.5,12.5,1.9,> 100,–,–,–,–,–
Oc1nc(-c2ccc(Cl)cc2)nc2sc3c(c12)CCCC3,–,33.8,19.2,33.8,33.2,> 100,> 100,–,–,–,–,–
O=c1[nH]c(-c2ccc(Cl)cc2Cl)nc2sc3c(c12)CCCC3,–,77.1,90.9,89.6,99.5,28.7,> 100,–,–,–,–,–
N#Cc1ccc(-c2nc3sc4c(c3c(=O)[nH]2)CCCC4)cc1,–,> 100,> 100,> 100,> 100,> 100,> 100,–,–,–,–,–
COc1cc(OC)cc(-c2nc(O)c3c4c(sc3n2)CCCC4)c1,–,22.3,26.3,48.1,41.9,7.3,> 100,–,–,–,–,–
O=[N+]([O-])c1ccc(-c2nc(O)c3c4c(sc3n2)CCCC4)cc1,–,71.1,65.6,44.2,51.7,> 100,> 100,–,–,–,–,–
Cc1ccc(-c2nc(O)c3c4c(sc3n2)CCCC4)cc1,–,> 100,> 100,99.1,69.9,86.8,> 100,–,–,–,–,–
CCCCOc1nc2sc3c(c2c(=O)n1Cc1ccccc1)CCCC3,–,–,–,–,–,–,–,19,–,–,–,–
COc1cccc(-c2nc3sc4c(c3c(=O)[nH]2)CCCC4)c1O,–,34.2,32.8,49.3,59.4,> 100,> 100,–,–,–,–,–
O=c1[nH]c(-c2cccc([N+](=O)[O-])c2)nc2sc3c(c12)CCCC3,–,2.8,1.9,8.3,12.6,91.8,> 100,–,–,–,–,–
Oc1nc(-c2ccccc2)nc2sc3c(c12)CCCC3,–,8.3,4.8,18.3,12,> 100,> 100,–,–,–,–,–
COc1cccc(-c2nc3sc4c(c3c(=O)[nH]2)CCCC4)c1,–,> 100,> 100,> 100,> 100,9.6,> 100,–,–,–,–,–
O=C(CSc1nc2sc3c(c2c(=O)n1Cc1ccccc1)CCCC3)NNC(=S)Nc1ccccc1,–,–,5.33,–,–,–,–,–,5.33,–,–,–
Nc1nc(NNC(=O)c2ccncc2)nc2sc3c(c12)CCCC3,–,–,–,–,–,–,–,–,–,7.7,18.9,13.3
O=c1[nH]c(-c2ccc(F)cc2)nc2sc3c(c12)CCCC3,–,9.1,8.6,16.9,14.5,> 100,> 100,–,–,–,–,–
